These compounds were tested against Pol theta (1-899) (Homo sapiens (Human), UniProt O75417) (assay: Pol theta ATPase activity, NADH oxidation-coupled enzymatic assay). Settings: Pol theta (1-899) 10 nM, ATP, dT50 ssDNA, absorbance 340 nm, 10-point dilution series; read-out: ATPase NADH coupling:Standard Screening:hPolQ IC50.
Format: biochemical
Protocol: The ability of the compounds of Formula (I) to inhibit ATPase activity of Pol theta (1-899) was determined using the assay described below.
Pol Theta ATPase activity was determined by measuring the rate of ATP turn over in a NADH oxidation-coupled enzymatic assay. 10-point dilution series of compounds were used in a 384 well format for the inhibition assays. Pol theta (1-899) (10 nM) in assay buffer (20 mM Tris HCl (pH 7.80), 80 mM KCl, 10 mM MgCl2, 1 mM DTT, 0.01% BSA, 0.01% Tween, 5% glycerol) was transferred to the test wells (20 μL), except the low control wells (20 μL of assay buffer was added to the low control wells). The plate was then incubated at room temperature for 15 min. An equal volume (20 μL) of 100 μM ATP, 300 nM dT50 (single-stranded DNA (ssDNA) containing 50 thymine bases), 300 μM NADH, 6 mM PEP, 10 U/mL lactate dehydrogenase and 20 U/mL pyruvate kinase in assay buffer was added to all the test wells. The plate was then centrifuged at 1000 rpm for 1 min. The reaction was monitored for 30 min by measuring absorbance (λ=340 nm) in a Tecan Spark multimode plate reader every minute. The high control (DMSO with enzyme) with low absorbance intensity represents no inhibition of ATPase reaction while the low control (DMSO with buffer) with high absorbance intensity represents full inhibition of ATPase activity. Slope of the reaction progress curves were used to calculate the rate of ATP hydrolysis. The rates were used to determine the percent inhibition using a four-parameter inhibition model to generate IC50, Hill slope and max inhibition.

Pol theta (1-899), sequence (O75417 1-899): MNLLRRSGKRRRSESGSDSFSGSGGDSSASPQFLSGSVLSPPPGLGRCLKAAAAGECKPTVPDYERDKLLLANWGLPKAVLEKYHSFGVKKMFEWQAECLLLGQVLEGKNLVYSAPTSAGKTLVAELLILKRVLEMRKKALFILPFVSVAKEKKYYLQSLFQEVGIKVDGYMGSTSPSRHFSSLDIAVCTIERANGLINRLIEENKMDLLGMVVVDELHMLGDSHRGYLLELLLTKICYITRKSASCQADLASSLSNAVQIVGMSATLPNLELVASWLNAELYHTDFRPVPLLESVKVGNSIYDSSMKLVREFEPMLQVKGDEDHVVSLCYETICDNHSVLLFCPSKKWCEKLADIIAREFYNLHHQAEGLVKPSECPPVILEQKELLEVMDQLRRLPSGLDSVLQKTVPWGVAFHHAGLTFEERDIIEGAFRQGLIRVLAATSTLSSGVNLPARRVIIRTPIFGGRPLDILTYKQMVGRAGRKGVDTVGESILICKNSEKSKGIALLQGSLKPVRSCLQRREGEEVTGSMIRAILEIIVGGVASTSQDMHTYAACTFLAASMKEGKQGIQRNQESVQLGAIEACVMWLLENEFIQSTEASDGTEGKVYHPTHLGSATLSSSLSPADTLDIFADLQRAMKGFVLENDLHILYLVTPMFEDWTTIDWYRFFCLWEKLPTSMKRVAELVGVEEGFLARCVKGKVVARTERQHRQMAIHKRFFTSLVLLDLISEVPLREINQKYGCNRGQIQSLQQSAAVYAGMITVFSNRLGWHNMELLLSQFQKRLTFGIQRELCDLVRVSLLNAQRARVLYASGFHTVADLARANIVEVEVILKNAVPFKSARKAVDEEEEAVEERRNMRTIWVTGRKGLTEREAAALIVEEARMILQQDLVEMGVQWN

| SMILES | IC50 [µM] |
| --- | --- |
| O=C(Nc1nnc(OCc2ccc(Cl)cc2)s1)c1ccncc1N1CCOCC1 [Example 59, N-(5-((4-chlorobenzyl)oxy)-1,3,4-thiadiazol-2-yl)-3-morpholinoisonicotinamide] | 0.2 to 0.5 |
| O=C1CCN(c2ncccc2C(=O)Nc2nnc(OCc3ccc(Cl)cc3)s2)CCN1 [Example 61, N-(5-((4-chlorobenzyl)oxy)-1,3,4-thiadiazol-2-yl)-2-(5-oxo-1,4-diazepan-1-yl)nicotinamide] | 0.5 to 1 |
| O=C1CN(c2ncccc2C(=O)Nc2nnc(OCc3ccc(Cl)cc3)s2)CCCN1 [Example 63, N-(5-((4-chlorobenzyl)oxy)-1,3,4-thiadiazol-2-yl)-2-(3-oxo-1,4-diazepan-1-yl)nicotinamide] | 1 to 10 |
| CNC(=O)c1cc(N2CCOCC2)c(C(=O)Nc2nnc(OCc3ccc(Cl)cc3)s2)cn1 [Example 64, N^5-(5-((4-chlorobenzyl)oxy)-1,3,4-thiadiazol-2-yl)-N2-methyl-4-morpholinopyridine-2,5-dicarboxamide] | 0.5 to 1 |
| O=C(Nc1nnc(OCc2ccc(-c3ncco3)cc2)s1)c1cccnc1N1CCOCC1 [Example 65, 2-morpholino-N-(5-((4-(oxazol-2-yl)benzyl)oxy)-1,3,4-thiadiazol-2-yl)nicotinamide] | 1 to 10 |
| O=C(Nc1nnc(OCc2ccc(Cl)cc2)s1)c1cccnc1N1CCOc2ccccc21 [Example 66, N-(5-((4-chlorobenzyl)oxy)-1,3,4-thiadiazol-2-yl)-2-(2,3-dihydro-4H-benzo[b][1,4]oxazin-4-yl)nicotinamide] | 1 to 10 |
| COc1ccccc1-c1ncccc1C(=O)Nc1nnc(OCc2ccc(Cl)cc2)s1 [Example 67, N-(5-((4-chlorobenzyl)oxy)-1,3,4-thiadiazol-2-yl)-2-(2-methoxyphenyl)nicotinamide] | 1 to 10 |
| O=C(Nc1nnc(OCc2ccc(Cl)cc2)s1)c1cccnc1N1CCN(CCO)C(=O)C1 [Example 68, N-(5-((4-chlorobenzyl)oxy)-1,3,4-thiadiazol-2-yl)-2-(4-(2-hydroxyethyl)-3-oxopiperazin-1-yl)nicotinamide] | 1 to 10 |
| N#Cc1ccc(C(=O)Nc2nnc(OCc3ccc(Cl)cc3)s2)c(N2CCOCC2)c1 [Example 72, N-(5-((4-chlorobenzyl)oxy)-1,3,4-thiadiazol-2-yl)-4-cyano-2-morpholinobenzamide] | 0.2 to 0.5 |
| CN(C)C(=O)c1cc(N2CCOCC2)c(C(=O)Nc2nnc(OCc3ccc(Cl)cc3)s2)cn1 [Example 73, N^5-(5-((4-chlorobenzyl)oxy)-1,3,4-thiadiazol-2-yl)-N2,N2-dimethyl-4-morpholinopyridine-2,5-dicarboxamide] | 1 to 10 |
| O=C(Nc1nnc(OCc2ccc(Cl)cc2)s1)c1cccnc1-c1cc[nH]c(=O)c1 [Example 74, N-(5-((4-chlorobenzyl)oxy)-1,3,4-thiadiazol-2-yl)-2′-hydroxy-[2,4′-bipyridine]-3-carboxamide or its tautomer N-(5-((4-chlorobenzyl)oxy)-1,3,4-thiadiazol-2-yl)-2′-oxo-1′,2′-dihydro-[2,4′-bipyridine]-3-carboxamide] | 0.5 to 1 |
| COc1cc(N2CCOCC2)c(C(=O)Nc2nnc(OCc3ccc(Cl)cc3)s2)cn1 [Example 75, N-(5-((4-chlorobenzyl)oxy)-1,3,4-thiadiazol-2-yl)-6-methoxy-4-morpholino-nicotinamide] | 0.5 to 1 |
| CC(=O)Nc1cc(N2CCOCC2)c(C(=O)Nc2nnc(OCc3ccc(Cl)cc3)s2)cn1 [Example 78, 6-acetamido-N-(5-((4-chlorobenzyl)oxy)-1,3,4-thiadiazol-2-yl)-4-morpholinonicotinamide] | 1 to 10 |
| O=C(Nc1nnc(OCc2ccc(Cl)cc2)s1)c1cccnc1-c1ccc(=O)[nH]c1 [Example 79, N-(5-((4-chlorobenzyl)oxy)-1,3,4-thiadiazol-2-yl)-6′-oxo-1′,6′-dihydro-[2,3′-bipyridine]-3-carboxamide or its tautomer N-(5-((4-chlorobenzyl)oxy)-1,3,4-thiadiazol-2-yl)-6′-hydroxy-[2,3′-bipyridine]-3-carboxamide] | 0.5 to 1 |
| Cn1cc(-c2ncccc2C(=O)Nc2nnc(OCc3ccc(Cl)cc3)s2)ccc1=O [Example 80, N-(5-((4-chlorobenzyl)oxy)-1,3,4-thiadiazol-2-yl)-1′-methyl-6′-oxo-1′,6′-dihydro-[2,3′-bipyridine]-3-carboxamide] | 0.2 to 0.5 |
| COc1ccccc1-n1nncc1C(=O)Nc1nnc(OCc2ccc(F)cc2)s1 [Example 82, N-(5-((4-fluorobenzyl)oxy)-1,3,4-thiadiazol-2-yl)-1-(2-methoxyphenyl)-1H-1,2,3-triazole-5-carboxamide] | ≤ 0.2 |
| O=C(Nc1nnc(OCc2ccc(Cl)cc2)s1)c1cnccc1N1CCN(CCN2CCOCC2)C(=O)C1 [Example 83, N-[5-[(4-chlorophenyl)methoxy]-1,3,4-thiadiazol-2-yl]-4-[4-[2-(morpholin-4-yl)ethyl]-3-oxopiperazin-1-yl]pyridine-3-carboxamide] | 0.5 to 1 |
| O=C(O)c1cc(N2CCOCC2)c(C(=O)Nc2nnc(OCc3ccc(Cl)cc3)s2)cn1 [Example 84, 5-((5-((4-chlorobenzyl)oxy)-1,3,4-thiadiazol-2-yl)carbamoyl)-4-morpholinopicolinic acid] | 1 to 10 |
| CNC(=O)c1cc(N2CCNC(=O)CC2)c(C(=O)Nc2nnc(OCc3ccc(Cl)cc3)s2)cn1 [Example 87, N^5-(5-((4-chlorobenzyl)oxy)-1,3,4-thiadiazol-2-yl)-N2-methyl-4-(5-oxo-1,4-diazepan-1-yl)pyridine-2,5-dicarboxamide] | 0.5 to 1 |
| COc1ccccc1-c1ccncc1C(=O)Nc1nnc(OCC2CC2)s1 [Example 90, N-(5-(cyclopropylmethoxy)-1,3,4-thiadiazol-2-yl)-4-(2-methoxyphenyl)nicotinamide] | 0.5 to 1 |
| O=C(Nc1nnc(OCc2ccc(Cl)cc2)s1)c1cccnc1-c1ccccc1 [Example 94, N-(5-((4-chlorobenzyl)oxy)-1,3,4-thiadiazol-2-yl)-2-phenylnicotinamide] | 1 to 10 |
| COc1ccccc1-c1cc(C#N)ncc1C(=O)Nc1nnc(OCc2ccc(Cl)cn2)s1 [Example 96, N-(5-((5-chloropyridin-2-yl)methoxy)-1,3,4-thiadiazol-2-yl)-6-cyano-4-(2-methoxyphenyl)nicotinamide] | ≤ 0.2 |

Next, values leading:

| IC50 [µM] | SMILES |
| --- | --- |
| ≤ 0.2 | COc1ccccc1-c1nc(C#N)ccc1C(=O)Nc1nnc(OCc2ccc(Cl)cc2)s1 [Example 71, N-(5-((4-chlorobenzyl)oxy)-1,3,4-thiadiazol-2-yl)-6-cyano-2-(2-methoxyphenyl)-nicotinamide] |
| ≤ 0.2 | N#Cc1ccc(C(=O)Nc2nnc(OCc3ccc(Cl)cc3)s2)c(N2CCNC(=O)C2)n1 [Example 76, N-(5-((4-chlorobenzyl)oxy)-1,3,4-thiadiazol-2-yl)-6-cyano-2-(3-oxopiperazin-1-yl)nicotinamide] |
| ≤ 0.2 | COc1ccccc1-c1ccncc1C(=O)Nc1nnc(OCc2ccc(Cl)cc2)s1 [Example 77, N-[5-[(4-chlorophenyl)methoxy]-1,3,4-thiadiazol-2-yl]-4-(2-methoxyphenyl)pyridine-3-carboxamide] |
| ≤ 0.2 | N#Cc1ccc(C(=O)Nc2nnc(OCc3ccc(Br)cc3)s2)c(N2CCOC3(CC3)C2)n1 [Example 85, N-(5-((4-bromobenzyl)oxy)-1,3,4-thiadiazol-2-yl)-6-cyano-2-(4-oxa-7-azaspiro[2.5]octan-7-yl)nicotinamide] |
| ≤ 0.2 | COc1ccccc1-n1cncc1C(=O)Nc1nnc(OCc2ccc(Br)cc2)s1 [Example 86, N-(5-((4-bromobenzyl)oxy)-1,3,4-thiadiazol-2-yl)-1-(2-methoxyphenyl)-1H-imidazole-5-carboxamide] |
| ≤ 0.2 | N#Cc1ccc(C(=O)Nc2nnc(OCc3ccc(Br)cc3)s2)c(N2CCNC(=O)C2)n1 [Example 88, N-(5-((4-bromobenzyl)oxy)-1,3,4-thiadiazol-2-yl)-6-cyano-2-(3-oxopiperazin-1-yl)nicotinamide] |
| ≤ 0.2 | COc1ccccc1-c1ccncc1C(=O)Nc1nnc(OCc2ccc(Cl)cn2)s1 [Example 89, N-(5-((5-chloropyridin-2-yl)methoxy)-1,3,4-thiadiazol-2-yl)-4-(2-methoxyphenyl)nicotinamide] |
| ≤ 0.2 | COc1ccccc1-c1cc(C#N)ncc1C(=O)Nc1nnc(OCc2ccc(Cl)cc2)s1 [Example 92, N-(5-((4-chlorobenzyl)oxy)-1,3,4-thiadiazol-2-yl)-6-cyano-4-(2-methoxyphenyl)nicotinamide] |
| ≤ 0.2 | O=C(Nc1nnc(OCc2ccc(Cl)cc2)s1)c1cnccc1-c1ccccc1OC1CC1 [Example 93, N-(5-((4-chlorobenzyl)oxy)-1,3,4-thiadiazol-2-yl)-4-(2-cyclopropoxyphenyl)nicotinamide] |
| ≤ 0.2 | COc1ccccc1-c1cnccc1C(=O)Nc1nnc(OCc2ccc(Cl)cc2)s1 [Example 95, N-(5-((4-chlorobenzyl)oxy)-1,3,4-thiadiazol-2-yl)-3-(2-methoxyphenyl)isonicotinamide] |
